{"source": "paper PMC4506530", "about": "“Small-Molecule Inhibitors That Target Protein–Protein Interactions in the RAD51 Family of Recombinases” (Chemmedchem, 2014)", "key": {"[1]": {"target": "T1, HumRADA2 (Pyrococcus furiosus, UniProt O74036, D220A/DEL288-314/E219S/I169M/K221M/V202Y/Y201A)", "assay": "Isothermal titration calorimetry (ITC), direct binding to HumRADA2", "description": "We previously published fragment-screening results using a humanised RAD51 surrogate from Pyrococcus furiosus, which we refer to as HumRADA2 (previously referred to as MAYSAM RadA).[23] In this surrogate protein, the N-terminal domain with the oligomerisation sequence was removed to monomerise the protein and expose the FxxA binding site for screening, and six surface residues were mutated around the Phe pocket in order to humanise the protein in this region.\n(§1) Supplemental Experimental Procedures\n(§2) C-terminal ATPase domain of P. furiosus RadA (residues 108–349, with deletion of the “L2” loop residues 288–314) was expressed in E.coli and purified as described before using ion-exchange ad size exclusion chromatographies.[1] Purified protein was concentrated to 0.5 mM, flash frozen in liquid nitrogen and stored at -80C. Protein concentration was determined by measuring absorbance at 280 nm in 6M GndHCl and using calculated absorption coefficient […]\n(§3) Isothermal Titration Calorimetry\n(§4) ITC experiments were performed at 25°C on a MicroCal ITC-200 (GE Healthcare).\n(§5) HumRadA2 (humanized RadA) (600 µM in 20 mM MES pH 6.0 with 100 mM NaCl and 0.5 mM EDTA was diluted with Tris buffer (200 mM, pH 7.5 with 100 mM NaCl), and DMSO was added to match to the ligand solution. In titrations with ATP, 5 mM MgCl2 was included in the ligand buffer and the protein buffer. Compounds in DMSO were diluted into the same Tris buffer to give a final concentration of 0.6–10 mM ligand in 10% DMSO and Tris buffer. Care was taken to ensure that the DMSO concentrations in the protein and ligand solutions were well matched so as to avoid artefacts arising from heats of dilution of DMSO. In a typical experiment, protein (60 µM) was loaded in the sample cell, and 16 injections (2.4 µL) of 4.8 s duration were made at 80 s intervals from a syringe loaded with ligand (0.6–10 mM) and rotating at 1000 rpm. In all titrations, an initial injection of ligand (0.4 µL) was made and discarded during data analysis. Control titrations of ligand to buffer were performed and […]\n(§6) The thermodynamic parameters were obtained by fitting the data to a single-site-binding model by using Origin software and fixing the stoichiometry as 1.0 for […]"}, "[2]": {"system": "wild-type RadA", "assay": "ITC, direct binding to unhumanised wild-type RadA", "parameters": "species or system Pyrococcus furiosus", "conditions": "unhumanised wild-type RadA protein"}, "[3]": {"target": "T1, HumRADA2", "assay": "Competitive ITC experiments to HumRADA2 (ligand titrated in the presence of compound)", "type": "binding", "conditions": "protein pre-incubated with compound (200 μM 5 c)", "method": "The KD measurement of each ligand was then repeated, but in the presence of 200 μM 5 c (bottom row titrations, Figure 2 B).\nas §1, §2, §3, §4, §5, §6"}, "[4]": {"conditions": "ITC thermodynamic binding profile, Table S1"}}, "note": "“Also recorded” adds a separate entry of the source."}
{"molecule": "Cl.N[C@@H](Cc1c[nH]c2ccccc12)C(=O)OCCc1ccccc1", "note": "[5 c]", "values": [{"measurement": "Kd", "setting": "[1]", "result": "35 ± 4", "unit": "µM"}, {"measurement": "-TDS", "setting": "[1]; [4]", "result": -3.3, "unit": "kcal/mol"}, {"measurement": "DG", "setting": "[1]; [4]", "result": -6.0, "unit": "kcal/mol"}, {"measurement": "DH", "setting": "[1]; [4]", "result": -2.7, "unit": "kcal/mol"}, {"measurement": "LLE", "setting": "[1]; LLE=pKD−clog P, clog P calculated with Instant JChem (ChemAxon), tryptophan ester series (Table 1)", "result": 1.1}, {"measurement": "LE (ligand efficiency)", "setting": "[1]; tryptophan ester series (Table 1)", "result": 0.26, "unit": "kcal mol−1 per heavy atom"}, {"measurement": "binding to wild-type RadA", "setting": "[2]", "result": "no binding"}, {"measurement": "competition with binding of Ac-FHTA-NH2 tetrapeptide", "setting": "[3]", "result": "competes with and blocks the binding; also recorded: shows competition with the FxxA binding site"}, {"measurement": "competition with binding of the RadA self-oligomerisation peptide", "setting": "[3]", "result": "competes with and blocks the binding; also recorded: shows competition with the FxxA binding site"}, {"measurement": "effect on binding of ATP", "setting": "[3]", "result": "not affected; also recorded: not the ATP binding site"}]}
